Key:
Type in all cases: cell-based
[1] = tested on: indicator strains; test: Deferred antagonism assay, producer S. salivarius K12: total strains inhibited; details: for Total number of strains inhibited / Total strains inhibited / Total stains inhibited: K12
Procedure: (§1) 1-2 producer strain colonies were transferred from a stock plate into 900 μL of suspension solution using a fresh cotton swab. Following this, suspensions were vortexed, and a sample was inoculated onto solid culture media using a fresh cotton swab. The inoculation was a streak that runs diametrically across the agar plate in a 1.5 cm wide strip. The plate was then incubated. Following incubation all visible colonies were removed by swabbing them from the agar surface. The plates were then treated with chloroform by dispensing 2 ml of chloroform onto 4 cm×4 cm piece of cloth and sealing the inverted agar plate on top for 30 minutes. The plates were then air dried for 30 minutes following chloroforming. 1-2 indicator strain colonies were then transferred from a stock plate into complementary suspension solution. The suspensions were then vortexed, and a sample was inoculated onto the same agar surface. These samples were streaked in a perpendicular direction to the initial producer streak.
(§2) Each indicator streak was prepared with fresh a suspension containing cells from a corresponding stock plate containing the indicator strain of interest. Indicator strains suspension samples were transferred using a fresh cotton swab. Results were measured by qualitatively reviewing the subsequent (if any) sizes of the zones of inhibition (ZOI) of indicator strain colony growth. A positive result is when there is a distinctive reduction or complete inhibition of indicator colony growth on the culture medium.
(§3) CABCa agar plates containing various concentrations of saccharide were prepared according to the methods described in Method 1. Producer strains were transferred from stock agar plates into 900 μL THB using a fresh cotton swab. A plastic spread plater was cut to approximately 1.2 cm width and then dipped into ethanol and left to air dry to ensure sterility. A 100 μL sample of the producer strain suspension was then dispensed onto the agar surface in a straight line running diametrically across the agar surface in (approximately) 20 μL spots. The spots were spaced approximately 1.5 cm apart from each other. The plastic spreader was then used to evenly distribute the spots across the agar surface in a 1.5 cm wide strip. This step was taken to ensure an even producer streak was inoculated onto the agar surface and provided an approximate measure of the initial inoculum concentration. Separate plastic spreaders were used for samples containing different producer strains. The samples were left to soak into the agar surface until there was no visible liquid remaining on the agar surface (approximately 20 minutes). Following producer streak preparations, the deferred antagonism assay protocol was followed as per Method 2. Results were recorded by measuring the size of the zone of inhibition (ZOI) in mm.
(§4) A dose response assay was carried out according to method 3 above, except a 1.2 cm streak was used. For the individual saccharide testing the pH of the producer streak was adjusted after the growth of producer to change the acidic conditions.
A deferred antagonism assay was conducted using K12 or M18 raw ingredient suspended in Todd Hewitt broth (THB). This was spread as a 1.2 cm streak containing approximately 1-2×10^6 cfu down the middle of a CABCa control or CABCa galactose supplemented test plate. After 18 hrs growth at 37° C. with 5% CO2, bacterial growth was removed, and the pH of the agar in the initial streak was measured and adjusted to a pH of 6.5-7.5 using 0.5M sodium carbonate pH11 before sterilizing the agar surface using chloroform vapor. Bacterial test strains were suspended in i-THB before being swabbed across the plates perpendicular to the initial streak. Plates were incubated for a further 18 hrs incubation at 37° C. with 5% CO2 before measuring (mm) any zones of inhibition for each test strain, […]

[2] = tested on: M. catarrhalis TW1; test: Deferred antagonism assay, producer S. salivarius M18
Procedure: as §1, §2, §3, §4

[3] = tested on: M. catarrhalis TW2; test: Dose response deferred antagonism assay, producer M18
[4] = tested on: ENTR indicator strains; test: Dose response deferred antagonism assay, producer M18: average over indicators
[5] = tested on: S. pyogenes strain as well as other microorganisms; test: Inhibitory activity of M18 grown in M17 broth with saccharides; details: saccharide 0.83% or 2.5% w/v, vs control
[6] = tested on: pathogens implicated in the ENT and Skin infections; test: Deferred antagonism assay with other S. salivarius producer strains
Procedure: Method: Preparation of solid culture media—CABCa agar plates were prepared with or without either 2.5% w/w raffinose or 0.5% w/w galactose by the addition of 0.5% (w/v) calcium carbonate to solid CAB agar in bottles and then melted by autoclaving at 110° C. for 10 mins. Once cooled, filter sterilised solutions of the saccharides or distilled water were added and mixed and then 20 ml pipetted into petri dishes.
Preparing S. salivarius producer suspension, about 6 colonies of each S. salivarius strain were added into separate tubes containing 1 ml THB and mixed well.
Deferred antagonism assay—100 μl of S. salivarius producer suspensions was dispensed onto CABCa plates supplemented with or without raffinose or galactose as droplets in a vertical line down the middle of the test plate. This suspension was then spread as 1.2 cm streak down the middle of the plate using a cutdown plastic spreader. Plates were incubated for 18 hours at 37° C., 5% CO2 in air.
After incubation, the bacterial growth was then removed from the agar plate using a sterile cotton swab. The pH of the producer streak was then adjusted by placing a 1 cm wide strip of filter paper soaked in 0.5M sodium carbonate pH 11 onto the agar plate to buffer the acid and adjust the pH up to around pH 6.5-7.5.
Plates were surface sterilised with chloroform vapour for 30 minutes, followed by air drying for 30 minutes.
Bacterial indicator suspensions were prepared by adding 3-9 colonies (depending on the size) of each strain into separate tubes containing 3 ml THB. These suspensions were then swabbed across the agar plate perpendicular to the producer streak and then the agar plate was incubated for a further 18 hours at 37° C., 5% CO2 in air.

For OC[C@H]1O[C@H](OC[C@H]2O[C@H](O[C@]3(CO)O[C@H](CO)[C@@H](O)[C@@H]3O)[C@H](O)[C@@H](O)[C@@H]2O)[C@H](O)[C@@H](O)[C@H]1O [Raffinose, D-(+) Raffinose pentahydrate], the “Total number of strains inhibited” value ([1]; Raffinose 1.7% wt) was 6, the “Total number of strains inhibited” value ([1]; Raffinose 1.7% wt, pH adjusted) was 5 and the “Total number of strains inhibited” value ([1]; Raffinose 2.5% wt) was 7. The “Total number of strains inhibited” value ([1]; Raffinose 2.5% wt, pH adjusted) was 6, the “Total number of strains inhibited” value ([1]; Raffinose 3.3% wt) was 5 and the “Total number of strains inhibited” value ([1]; Raffinose 3.3% wt, pH adjusted) was 5. The “Total number of strains inhibited” value ([1]; Raffinose 5% wt) was 6, the “Total number of strains inhibited” value ([1]; Raffinose 5% wt, pH adjusted) was 6 and the “Total number of strains inhibited” value ([1]; Raffinose 10% wt) was 6. The “Total number of strains inhibited” value ([1]; Raffinose 10% wt, pH adjusted) was 6, the Total strains inhibited ([1]; saccharide 3.3% w/v) was 3/3 and the Total strains inhibited ([1]; saccharide range 2.5%-10% w/v) was 3/3. The “number of the indicators tested inhibited” value ([1]; Raffinose 1.7, 2.5, 3.3 and 5%, K12 or M18) was “at least 7”, the “inhibitory spectrum of K12 or M18” value ([1]; Raffinose (2.5%)) was “inhibit several ENTR, dental and skin pathogens and S. salivarius strains” and the “change in zone of inhibition size M. catarrhalis TW1” value ([2]; 1.5% (w/v) raffinose) was 31 mm. For the same compound, the “Zone of inhibition M. catarrhalis TW1” value ([2]; Raffinose 1.7% wt) was 7 mm, the “Zone of inhibition M. catarrhalis TW1” value ([2]; Raffinose 1.7% wt, pH adjusted) was 0 mm and the “Zone of inhibition M. catarrhalis TW1” value ([2]; Raffinose 2.5% wt) was 17 mm. The “Zone of inhibition M. catarrhalis TW1” value ([2]; Raffinose 2.5% wt, pH adjusted) was 0 mm, the “Zone of inhibition M. catarrhalis TW1” value ([2]; Raffinose 3.3% wt) was 0 mm and the “Zone of inhibition M. catarrhalis TW1” value ([2]; Raffinose 3.3% wt, pH adjusted) was 0 mm. For the same compound, the “Zone of inhibition M. catarrhalis TW1” value ([2]; Raffinose 5% wt) was 15 mm, the “Zone of inhibition M. catarrhalis TW1” value ([2]; Raffinose 5% wt, pH adjusted) was 0 mm and the “Zone of inhibition M. catarrhalis TW1” value ([2]; Raffinose 10% wt) was 0 mm. For the same compound, the “Zone of inhibition M. catarrhalis TW1” value ([2]; Raffinose 10% wt, pH adjusted) was 0 mm, the “change in zone of inhibition size M. catarrhalis TW2” value ([3]; 1.5% (w/v) raffinose) was 31 mm and the “Average ZOI change” value ([4]; 1.5% raffinose) was 22.16 mm. For the same compound, the “inhibitory activity of M18 grown in presence of saccharide” value [5] was “greater inhibitory activity”, the “induction of inhibitory effect in other S. salivarius strains, exception ATCC 7073” value ([6]; 2.5% w/w raffinose, compared with K12 and M18) was “does not induce same inhibitory effect” and the “antimicrobial activity of S. salivarius strain ATCC 7073” value ([6]; supplemented with 2.5% w/w raffinose) was “antimicrobial activity”.

For O=C[C@H](O)[C@@H](O)[C@@H](O)[C@H](O)CO [Galactose, D-galactose], the Total stains inhibited ([1]; Galactose 0.5% w/w) was 5/6, the Total stains inhibited ([1]; Galactose 1.25% w/w) was 5/7 and the Total stains inhibited ([1]; Galactose 1.7% w/w) was 4/7. The Total stains inhibited ([1]; Galactose 2.5% w/w) was 4/7, the Total stains inhibited ([1]; Galactose 3.3% w/w) was 2/7 and the Total stains inhibited ([1]; Galactose 5% w/w) was 0/7. The Total strains inhibited ([1]; saccharide 3.3% w/v) was 0/3, the Total strains inhibited ([1]; saccharide range 0.83%-3.3% w/v) was 1/3 and the “inhibitory activity (potency) and spectrum of Blis K12 and Blis M18” value ([1]; only at 0.5% w/w Galactose) was “enhanced inhibitory activity”. For the same compound, the “increase in zone of inhibition M. catarrhalis TW1” value ([2]; 1.0% (w/v) galactose) was 12 mm, the “increase in zone of inhibition M. catarrhalis TW1” value ([2]; 1.5% (w/v) galactose) was 23 mm and the “increase in zone of inhibition M. catarrhalis TW2” value ([3]; 1.0% (w/v) galactose) was 13 mm. The “increase in zone of inhibition M. catarrhalis TW2” value ([3]; 1.5% (w/v) galactose) was 23 mm, the “Average ZOI change” value ([4]; 1.5% galactose) was 11.5 mm and the “inhibitory activity of M18 grown in presence of saccharide” value [5] was “greater inhibitory activity”. For the same compound, the “induction of inhibitory effect in other S. salivarius strains” value ([6]; 0.5% w/w galactose, compared with K12 and M18) was “does not induce the same inhibitory effect”.

Reference: patent publication US20240390434A1, “PROBIOTIC ENHANCERS AND USES THEREOF” (Blis Technologies Limited, priority 2021, published 2024)
